Results on four substances are retold here after patent US20090281278A1, “MODIFIED MOLECULES WHICH PROMOTE HEMATOPOIESIS” (priority 2006, published 2009).

“Also recorded” adds a separate entry of the source. Bridges are numbered along the chain shown (N, C = ends). Where no end group is shown, it is not given here. [ ]: non-standard residue; d: D form. 1Nal = N[C@@H](Cc1cccc2ccccc12)C(=O)O

For the test, the system named is TF-1 cells. Description: TF-1 proliferation assay (MTT/MTS, number of viable cells). Format: cell-based, human. To be noted: for efficacy and potency (EPO mimetic activity) compared with reference peptides: TF-1 proliferation, normalized plots. On the procedure: An experiment was performed in a standard TF-1 cell assay as recommended by the European Pharmacopoe for the determination of EPO-like activity in vitro (please also see below). Basically, TF-1 cells (their proliferation being dependent from the presence of EPO-like activity) are cultured in the presence various concentrations of EPO or EPO-mimetic substances. The resulting cell numbers are quantified using colorimetric MTT-assay and photometric measurements.
TF1 cells in logarithmic growth phase (2×10^5-1×10^6 cells/ml grown in RPMI with 20% fetal calf serum (FCS) and 0.5 ng/ml IL-3) were counted, and the number of cells needed to perform an assay were centrifuged (5 min. 1500 rpm) and resuspended in RPMI with 5% FCS without IL-3 at 300 000 cells/ml. Cells were precultured in this (starvation) medium without IL-3 for 48 hours. Before starting the assay the cells were counted again.
Shortly before starting the assay stock solutions of peptides and EPO were prepared. Peptides were weighed and dissolved in RPMI with 5% FCS up to a concentration of 1 mM, 467 μM or 200 μM. EPO stock solutions were 10 nM or 20 nM. 292 μl of these stock solutions were pipetted into one well of a 96 well culture plate—one plate was taken for each substance to be tested. Two hundred μl of RPMI with 5% FCS were pipetted into seventeen other wells in each plate. Ninety-two μl of stock solution were pipetted into a well containing 200 μl medium. The contents were mixed, and 92 μl from this well was transferred to the next, and so forth. This way a dilution series (18 dilutions) of each substance was prepared such that in each consecutive well the concentration was 1:√10 of the concentration in the well before that. From each well 3×50 μl was transferred to three empty wells. This way each concentration of substance was measured in quadruplicate. Note that the uppermost and lowermost line of wells of each plate was left void.
Pre-treated (starved) cells were centrifuged (5 min. 1500 rpm) and resuspended in RPMI with 5% FCS at a concentration of 200 000 cells per ml. […]
To measure the number of live cells per well, ready-to-use […] (Promega, CellTiter 96 Aqueous One Solution Cell Proliferation Assay) was thawed in a 37° C. water bath. […] Twenty-five μl of a 10% SDS solution was added, and plates were measured in an ELISA reader (Genios, Tecan). […]
For optimal results TF-1 cells should be cultured for two days in the absence of any cytokine (starved) before starting the assay. Three days after starting the assay, cell proliferation is measured indirectly by assaying the number of viable cells.
A tetrazolium reagent, called MTS, is added which is reduced to coloured formazan. […] The amount of formazan is measured spectrophotometrically. […]

With “GGTYSCHFGPLTWVCKPQGG [EMP1, reference compound]”, the “agonist behaviour (maximal response compared with EPO)” value (peptides in their monomeric form) is on record as “partial agonists”.
On to “Ac-GGTYSCHFGKLTWVCKKQGG (cysteine pairing not given here) [BB49]”, for which the “efficacy and potency (EPO mimetic activity) compared with reference peptides” value was “efficacy and potency in the same range as EMP1”.
As for “AGEM40—HES: peptide (AGEM40) HESylated according to the supravalence principle (Ac-CGGTYSCHFGKLT[1Nal]VCKKQRGGGTYSCHFGKLT[1Nal]VCKKQRG-NH2; disulfide 7-16, 27-36 (inferred); not fully specified (residue 1); also: HES (hydroxyethyl starch) conjugate, maleimide-linked)”, the “efficacy and potency (EPO mimetic activity) compared with reference peptides” value was “highly effective and potent”.
Still for that read-out and setting: then “Ac-GGTYSCHFGKLT-Na1-VCKKQRG-Am (Ac-GGTYSCHFGKLT[1Nal]VCKKQRG-NH2; cysteine pairing not given here) [BB68]”, with “even more effective than EMP1 and BB49; also recorded: improved effect”.
